Assay results published in patent US11026945B2, “Protein kinase RNA-like endoplasmic reticulum kinase (PERK) inhibitors for prevention and/or treatment of lung injury and/or inflammation” (THE TRUSTEES OF THE UNIVERSITY OF PENNSYLVANIA, priority 2016, dated 2021).
Read-outs that look alike come from different tables or passages of the source.

What was measured:
[1] = tested on: ISR (p-EIF2α, ATF4, CHOP) in lung tissue; assay: Lung tissue ISR western blot in rat VILI model; format: in vivo
Description: The right lung was harvested. […] For cytokine analysis serum was used.
Total protein from cells and lung tissue were extracted using RIPA lysis buffer. Total protein was quantified with Pierce […] (Thermo Fisher Scientific). Western blotting for phosphorylated (p) and total (t) forms of EIF2α, p- and t-IRE1α, p- and t-PERK, ATF4, CHOP and XBP1 was performed. B-actin was used as loading control (Santa Cruz Biotechnologies, Santa Cruz, Calif.). The following primary antibodies were used: p-EIF2α (Ser 51) and t-EIF2α rabbit monoclonal antibody (Cell Signaling, Danvers, Mass.), p-IRE1α (Ser 724) and t-IRE1α rabbit monoclonal antibody (Abcam, Cambridge, Mass.), ATF4 rabbit polyclonal antibody (Sigma-Aldrich), CHOP (F-168) mouse polyclonal antibody (Santa Cruz), XBP-1 rabbit monoclonal antibody (Abcam) and B-actin mouse polyclonal antibody (Santa Cruz). For immunoprecipitation of PERK, p-PERK (Thr 981) antibody (Santa Cruz) was used and p-PERK (Thr 980) and t-PERK were detected with rabbit monoclonal antibodies (Cell signaling). N=4-8 biological replicates per conditions were used in immunoblot studies. Immunoblots were scanned and bend densities were analyzed using Image J software.

rat model of VILI = tested on: rat model of VILI
Description: To establish the feasibility of translating the in vitro findings to in vivo, a rat model of VILI was used. Animals were pretreated via oral gavage with either 30 mg/kg PI or its vehicle for 4 hours prior to the start of the experiment. Rats were ventilated with 20 ml/kg tidal volume via tracheostomy for 4 hours without positive end expiratory pressure (PEEP) or a recruitment maneuver to induce injury. The lung tissue of ventilated animals was compared to spontaneously breathing controls. […] To confirm these findings, immunofluorescence analysis of thin cut sections was performed using a Zeiss LSM 880 laser scanning confocal microscope (FIG. 19).
Groups of animals (Sprague-Drawly rats, 250 to 300 g weight purchased from Charles River Laboratories, N=150)) were pretreated with one time dose of 3, 10 and 30 mg/kg of PI (GSK2606414) or its vehicle (0.1% TWEEN 80 in 0.5% […]) via oral gavage 4 hours before the start of the experiment. Subsequently, animals were randomized in the following conditions: • 1. Non-ventilated controls pretreated with drug vehicle (C/VC). These animals were sacrificed 8 hours post gavage. • 2. Low tidal volume ventilation group pretreated with vehicle (LTV/VC). These animals were anesthetized 4 hours post gavage and ventilated via tracheostomy for 4 hours with 6 ml/kg tidal volume, 3-5 cmH2O PEEP and lungs were recruited with 30 cmH2O pressure of air hourly. Animals were sacrificed at the end of 4 hours ventilation. This group will served as a second control to assess lung injury parameters in an optimized ICU care situation. • 3. High tidal volume ventilation group pretreated with vehicle (HTV/VC). Animals were ventilated with 20 ml/kg tidal volume without PEEP or recruitment maneuver to induce lung injury and sacrificed at the end of mechanical ventilation period. • 4. Controls with PI treatment (C/PI). Animals were sacrificed after 8 hours of PI treatment. • 5. High tidal volume mechanical ventilation with PI treatment (HTV/PI). Animals were sacrificed at the end of mechanical ventilation period. At the end of the experiment, lung tissue, BAL and serum was collected from all animals. To determine the optimal dose of PI in VILI, the following parameters were measured: BAL total protein measurement (BioRad Protein Assay, BioRad, Hercules, Calif.); lung tissue histology with hematoxylin-eosin (H&E) staining for lung injury scoring; BAL total and differential cell count; Serum and BAL cytokine analysis for IL-18 (R&D Systems, Minneapolis, Minn., USA); lung tissue was collected for future RNA and protein expression studies; blood pressure and heart rate recording (Coda Monitor, Kent Scientific, Torrington, Conn.); and/or animal mortality prior to the end of the experiment.
Rats (N=32) received PERK inhibitor GSK 2606414 (PI) or vehicle control (0.1% Tween 80+0.5% hydroxypropyl-methylcellulose (VC)) via oral gavage 4 hours before the start of mechanical ventilation in 2.5 ml volume bolus. Subsequently, animals were randomized to receive mechanical ventilation, or they were let to breathe spontaneously (N=8/group). For the mechanical ventilation protocol, rats were kept under general anesthesia for the entire procedure. Their breathing, cardiac function and neurological responses were continuously monitored to minimize pain and distress. Induction and maintenance anesthesia was performed with inhaled 2-4% isoflurane. If additional anesthesia was necessary to keep the animal in surgical plane at the time of induction, it was given an intraperitoneal injection of a mixture of ketamine (75-100 mg/kg) and xylazine (5-10 mg/kg). To minimize injectable anesthesia and improve analgesia use, the subcutaneous tissue of the tracheostomy site was injected with 1% lidocaine.

[2] = ventilated rats (VPI), 30 mg/kg oral gavage 4 hours before ventilation
[3] = CPI: spontaneously breathing rats, 30 mg/kg four hours prior to sacrifice
[4] = VPI: rats ventilated 4 hours with 20 ml/kg tidal volume, 30 mg/kg four hours prior to ventilation
[5] = ventilated rats, 30 mg/kg PI oral
[6] = ventilated rats, 30 mg/kg oral gavage

Compound: Cn1cc(-c2ccc3c(c2)CCN3C(=O)Cc2cccc(C(F)(F)F)c2)c2c(N)ncnc21 [PI, 1-[5-(4-Amino-7-methyl-7H-pyrrolo[2,3-d]pyrimidin-5-yl)indolin-1-yl]-2-(3-trifluoromethylphenyl)ethanone]
- p-EIF2α, ATF4 and CHOP in lung tissue ([1]; spontaneously breathing controls (CPI), 30 mg/kg oral gavage): did not affect
- VILI-mediated phosphorylation of EIF2α in lung tissue [1, 2]: significantly reduced
- protein expression of ATF4 in lung tissue [1, 2]: significantly reduced
- protein expression of CHOP in lung tissue [1, 2]: significantly reduced
- Macrophage cell count (rat model of VILI; [3]): 0.77 ± 0.17 ×10^3 cells/ml BAL
- Neutrophil cell count (rat model of VILI; [3]): 0.003 ± 0.003 ×10^3 cells/ml BAL
- Total cell count (rat model of VILI; [3]): 1.44 ± 0.23 ×10^3 cells/ml BAL
- FITC-labeled albumin permeability index (rat model of VILI; VPI vs V, 30 mg/kg oral gavage): decreased
- Macrophage cell count (rat model of VILI; [4]): 1.28 ± 0.26 ×10^3 cells/ml BAL
- Neutrophil cell count (rat model of VILI; [4]): 0.03 ± 0.009 ×10^3 cells/ml BAL
- Total cell count (rat model of VILI; [4]): 1.75 ± 0.14 ×10^3 cells/ml BAL
- dose sufficient to inhibit VILI (rat model of VILI; dose titration 3, 10 and 30 mg/kg, oral gavage 4 hours before ventilation): 10 mg/kg
- alveolocapillary permeability in VILI (FITC-labeled albumin extravasation), effect of increasing dose (rat model of VILI; dose titration 3-30 mg/kg, experiment partially completed): gradual effect on reducing alveolocapillary permeability
- immunosuppression (BAL cell count) (rat model of VILI; spontaneously breathing animals, 30 mg/kg): did not result in immunosuppression
- Ventilation-induced BAL total protein content (rat model of VILI; [5]): significantly reduced
- lung injury score (rat model of VILI; [5]): significantly reduced
- IL-18 BAL levels (rat model of VILI; [6]): reduced
- serum IL-18 levels (rat model of VILI; [6]): did not affect
